# Several values for one entry are separate records, joined by “and”; a condition that tells them apart may be missing. Equal entries are not always repeated.
# What was measured:
# mice = assay: Hot plate antinociceptive test; type: in vivo
# [1] = system: carrageenan-induced paw edema; assay: Carrageenan-induced paw edema model; type: in vivo; conditions: mice
# Description: The anti-inflammatory activity of MAK01 was evaluated through a carrageenan-induced paw edema model. The mice, with weights ranging from 25 to 30 g, were separated into five distinct groups, these being Vehicle Group 1, Aspirin Group 2, and different concentrations of MAK01 in Groups 3–5. Each of these groups comprised five mice. The negative control group in the experiment received a specific solution comprising normal saline, DMSO, and Tween-80. The mixture contained 94% normal saline, 5% DMSO, and 1% Tween-80, delivered at a concentration of 10 mL per kg. In contrast, the positive control group in the assay received the comparator aspirin at a precise dose of 10 mg/kg. The test samples were administered at doses of 10 mg/kg, 20 mg/kg, and 30 mg/kg, given intra-peritoneally. After 30 min, a 2% carrageenan suspension (0.2 mL) was administered to each mouse in every group via a subcutaneous injection in the hind paw. In the experiment, a plethysmometer was used to precisely measure inflammation and edema. These measurements were taken at multiple time points both prior to and following the carrageenan administration. Specifically, the readings were recorded at 1, 2, 3, 4, and 5 h intervals to monitor the progress of the inflammatory response and paw swelling. These obtained results were then compared against the outcomes from the negative control group. The gathered data from the experiment, relating to the impact of the newly synthesized compounds on paw edema, were carefully processed to derive the percentage of edema inhibition. Using the below equation, the percent inhibition was calculated. % Inhibition=Ce−Te/Ce×100
# In the formula, ‘Ce’ refers to the control group paw edema volume, while ‘Te’ denotes test groups’ paw edema volume.
# COX-1 = target: T1, COX-1 (Ovis aries, UniProt P05979); assay: COX-1 inhibitory assay; type: biochemical, sheep
# T1 construct: purchased Cayman Chemical Batch No.: A4570
# T1 sequence (P05979 25-600): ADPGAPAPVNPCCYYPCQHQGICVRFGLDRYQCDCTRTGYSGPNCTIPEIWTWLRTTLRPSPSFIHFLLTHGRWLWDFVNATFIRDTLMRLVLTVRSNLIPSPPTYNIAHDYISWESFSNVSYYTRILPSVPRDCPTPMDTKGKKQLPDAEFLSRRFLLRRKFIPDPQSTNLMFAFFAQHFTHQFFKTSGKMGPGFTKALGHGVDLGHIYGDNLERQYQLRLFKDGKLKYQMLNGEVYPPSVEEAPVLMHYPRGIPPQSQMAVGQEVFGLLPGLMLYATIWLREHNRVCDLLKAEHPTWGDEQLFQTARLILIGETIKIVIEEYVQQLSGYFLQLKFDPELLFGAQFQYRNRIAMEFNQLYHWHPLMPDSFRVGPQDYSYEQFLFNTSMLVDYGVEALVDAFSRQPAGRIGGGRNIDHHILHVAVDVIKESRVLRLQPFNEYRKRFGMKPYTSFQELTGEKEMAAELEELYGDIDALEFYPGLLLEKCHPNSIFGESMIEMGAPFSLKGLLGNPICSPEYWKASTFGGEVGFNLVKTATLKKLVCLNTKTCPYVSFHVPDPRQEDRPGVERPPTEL
# Description: The inhibitory potential of synthesized MAK01 was evaluated using a COX-1 inhibitory assay. This utilized a solution of COX-1 enzymes derived from sheep, adhering to previous protocols. The COX-1 enzyme solution was prepared with a specific concentration. The concentration was set at 0.7–0.8 μg per 10 μL. The activation of the enzymes was achieved by taking and mixing 10 μL and 50 μL of the […] enzyme solution and a co-factor solution, respectively. This mixture was then cooled at 4 °C in an ice bucket for a duration of five to six minutes. As for the preparation of the co-factor solution, it began with 0.1 M Tris buffer, which was maintained at a pH of 8.0. To this buffer, 1 mM of hematin was added. Next, 0.9 mM of glutathione was mixed into the solution. Further, the solution was enriched with 0.24 mM of TMPD. After the co-factor solution, specific test samples were prepared. These samples were of a certain concentration and diluted to 20 μL in volume. These test samples were then mixed with 60 μL of the […] enzyme solution. Once the mixture was prepared, it was left undisturbed at room temperature. The duration for this standing period ranged from five to ten minutes. Subsequent to this resting period, 20 μL of 30 mM arachidonic acid was added. This addition served to initiate the reaction within the solution. Post initiation of the reaction, the solution underwent an incubation period. The solution was kept at a temperature of 37 °C. The incubation was allowed to continue for a total of 15 min. The final solution underwent an absorbance measurement. This was performed using a UV–visible spectrophotometer. Specifically, the measurement was made at a 570 nm wavelength. Similarly, the test samples in various concentrations were processed and analyzed using the same procedure. Using the absorbance value over time, the inhibition of the COX-1 enzyme was quantified.
# Using the following formulation, the percent inhibition for each sample was calculated. % Inhibition=Abs. test sample−Abs. background/Abs. solvent blank−Abs. background×100
compound,measurement,setting,value
"CCOC(=O)C(C)(C)C1CC(=O)N(c2ccccc2)C1=O (centres unmarked) [MAK01, ethyl 2-(2,5-dioxo-1-phenylpyrrolidin-3-yl)-2-methylpropanoate]",Latency Time (Seconds) on Hot Plate,"mice; dose 50 mg/kg, 30 min",10.32 ± 0.82 s
same,Latency Time (Seconds) on Hot Plate,"mice; dose 50 mg/kg, 60 min",9.96 ± 0.16 s
same,Latency Time (Seconds) on Hot Plate,"mice; dose 50 mg/kg, 90 min",9.63 ± 0.26 s
same,Latency Time (Seconds) on Hot Plate,"mice; dose 50 mg/kg, 120 min",9.49 ± 0.25 s
same,Latency Time (Seconds) on Hot Plate,"mice; dose 50 mg/kg, 150 min",9.16 ± 0.81 s
same,Latency Time (Seconds) on Hot Plate,"mice; dose 100 mg/kg, 30 min",12.16 ± 0.51 Seconds and 12.16 ± 0.51 ^ns Seconds
same,Latency Time (Seconds) on Hot Plate,"mice; dose 100 mg/kg, 60 min",11.92 ± 0.71 s
same,Latency Time (Seconds) on Hot Plate,"mice; dose 100 mg/kg, 90 min",11.76 ± 0.87 ^ns Seconds
same,Latency Time (Seconds) on Hot Plate,"mice; dose 100 mg/kg, 120 min",11.14 ± 0.91 ^ns Seconds
same,Latency Time (Seconds) on Hot Plate,"mice; dose 100 mg/kg, 150 min",10.96 ± 0.74 s
same,Latency Time (Seconds) on Hot Plate,"mice; dose 150 mg/kg, 30 min",12.93 ± 0.45 Seconds and 12.93 ± 0.45 ^ns Seconds
same,Latency Time (Seconds) on Hot Plate,"mice; dose 150 mg/kg, 60 min",12.85 ± 0.84 ^ns Seconds
same,Latency Time (Seconds) on Hot Plate,"mice; dose 150 mg/kg, 90 min",12.42 ± 0.36 ^ns Seconds
same,Latency Time (Seconds) on Hot Plate,"mice; dose 150 mg/kg, 120 min",11.98 ± 0.74 ^ns Seconds
same,Latency Time (Seconds) on Hot Plate,"mice; dose 150 mg/kg, 150 min",11.76 ± 0.41 ^ns Seconds
same,Paw Edema Inhibition in Percent,"[1]; dose 10 mg/kg, 1 h",30.3 ± 0.77 ^ns %
same,Paw Edema Inhibition in Percent,"[1]; dose 10 mg/kg, 2 h",33.34 ± 0.98 %
same,Paw Edema Inhibition in Percent,"[1]; dose 10 mg/kg, 3 h",19.62 ± 0.64 %
same,Paw Edema Inhibition in Percent,"[1]; dose 10 mg/kg, 4 h",31.44 ± 0.74 %
same,Paw Edema Inhibition in Percent,"[1]; dose 10 mg/kg, 5 h",31.22 ± 0.84 %
same,Paw Edema Inhibition in Percent,"[1]; dose 20 mg/kg, 1 h",34.7 ± 0.74 ^ns %
same,Paw Edema Inhibition in Percent,"[1]; dose 20 mg/kg, 2 h",34.7 ± 0.74% and 34.54 ± 0.76 %
same,Paw Edema Inhibition in Percent,"[1]; dose 20 mg/kg, 3 h",21.42 ± 0.64 %
same,Paw Edema Inhibition in Percent,"[1]; dose 20 mg/kg, 4 h",29.52 ± 0.63 %
same,Paw Edema Inhibition in Percent,"[1]; dose 20 mg/kg, 5 h",31.85 ± 0.32 %
same,Paw Edema Inhibition in Percent,"[1]; dose 30 mg/kg, 1 h",38.74 ± 0.81 ^ns %
same,Paw Edema Inhibition in Percent,"[1]; dose 30 mg/kg, 2 h",39.20 ± 0.86 %
same,Paw Edema Inhibition in Percent,"[1]; dose 30 mg/kg, 3 h",34.4 ± 0.64 %
same,Paw Edema Inhibition in Percent,"[1]; dose 30 mg/kg, 4 h",37.64 ± 0.86 %
same,Paw Edema Inhibition in Percent,"[1]; dose 30 mg/kg, 5 h",40.58 ± 0.84% and 40.58%
same,IC50,COX-1,1090 µM
same,COX-1 percent inhibition,COX-1; 62.50 μg/mL,32%
same,inhibition at 62.5 µg/mL,"COX-1; 62.50 μg/mL, read-out: COX-1 percent inhibition",31.5%
same,COX-1 percent inhibition,COX-1; 125 μg/mL,38%
same,inhibition at 125 µg/mL,"COX-1; 125 μg/mL, read-out: COX-1 percent inhibition",37.5%
same,COX-1 percent inhibition,COX-1; 250 μg/mL,46%
same,inhibition at 250 µg/mL,"COX-1; 250 μg/mL, read-out: COX-1 percent inhibition",45.8%
same,COX-1 percent inhibition,COX-1; 500 μg/mL,56%
same,inhibition at 500 µg/mL,"COX-1; 500 μg/mL, read-out: COX-1 percent inhibition",56.5%
same,COX-1 percent inhibition,COX-1; 1000 μg/mL,65%
same,inhibition at 1000 µg/mL,"COX-1; 1000 μg/mL, read-out: COX-1 percent inhibition",64.8%
